# Measured values as given in patent US11174271B2, “6-membered uracil isosteres” (CV6 Therapeutics (NI) Limited, priority 2016, dated 2021).
# Biological target: T1, recombinant human deoxyuridine nucleotidohydrolase (dUTPase) (Homo sapiens, UniProt P33316)
# T1 construct: made in house
# T1 sequence (P33316 1-164 isoform P33316-2): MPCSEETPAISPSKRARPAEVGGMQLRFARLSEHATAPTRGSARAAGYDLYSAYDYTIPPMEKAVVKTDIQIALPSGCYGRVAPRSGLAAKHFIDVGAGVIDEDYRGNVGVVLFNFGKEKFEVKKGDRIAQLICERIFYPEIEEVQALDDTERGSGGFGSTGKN
# Test: fluorescence-based dUTPase inhibition assay (DNA polymerase-based dUTP detection)
# Format: biochemical
# Settings: mean across three concentrations, typically 100, 50 and 25 μmol/L, compared to the in-run positive control
# Text: Recombinant human deoxyuridine nucleotidohydrolase (dUTPase) is expressed and purified as described in Ladner R D, Carr S A, Huddleston M J, McNulty D E, Caradonna S J. J Biol Chem. 1996 Mar. 29; 271(13):7752-7. All drugs stocks are aliquoted and diluted as appropriate prior to use. The oligonucelotide primer, templates and fluorophore- and quencher-labeled detection probes are synthesized by Integrated DNA Technologies (Coralville, Iowa), subjected to polyacrylamide gel electrophoresis purification and reconstituted in Omnipur sterile nuclease-free water (EMD Chemicals USA, Gibbstown N.J.) at a stock concentration of 100 μmol/L. The two non-emissive (dark) quenching molecules incorporated into the detection probes include the Iowa black fluorescein quencher (IBFQ; absorption max 531 nm) and ZEN (non-abbreviation; absorption max 532 nm). The fluorescent label utilized is 6-FAM (5′-carboxyfluorescein; excitation max.=494 nm, emission max.=520 nm). Probes are further diluted to a working stock of 10 μmol/L and aliquoted to avoid repeated freeze/thaw cycles. AmpliTaq Gold DNA Polymerase, GeneAmp 10×PCR Buffer 2, MgCl2 and MicroAmp Optical 96-well Reaction Plates are purchased from Applied Biosystems (Carlsbad, Calif.). dNTPs are purchased individually at stock concentrations of 100 mmol/L from New England Biolabs at HPLC-certified >99% purity (Ipswich, Mass.).
# Reaction mixtures contained primer, probe and template at an equimolar final concentration of 0.4 μmol/L. Magnesium chloride (MgCl2) is included at a final concentration of 2 mmol/L. Non-limiting dNTPs are included in the reaction mix in excess at a final concentration of 100 μmol/L (dUTP/dTTP is excluded). AmpliTaq Gold DNA polymerase is added at 0.875 U/reaction, 2.5 μl of 10×PCR buffer 2 added and nuclease-free ddH2O added to a final reaction volume of 25 μl. For dUTP inhibition analysis, the volume of ddH2O is further modified to accommodate an additional 1 μl of dUTPase (10 ng/μl) and 1 μl of inhibitor or DMSO control. Thermal profiling and fluorescence detection is performed using a customized thermal program on board a Roche Lightcycler LC480 Instrument II. For analysis of dNTPs, the thermal profile consisted of an 8 min 37° C. step followed by a 10 min 95° C. step to ‘hot-start’ the Taq polymerase and a primer extension time of up to 30 min at 60° C. Raw fluorescence spectra for 6-FAM is measured at specified time intervals to follow assay progression on board a Roche LightCycler 480 Software Version 1.5 and exported and analyzed in Microsoft Excel (Microsoft, Redmond Wash.) and Prism (GraphPad Software, La Jolla Calif.). Fluorescence values for blank reactions (limiting dNTP omitted) are subtracted to give normalized fluorescence units (NFU) to account for background fluorescence.
# Test compounds were screened in a fluorescence-based assay. The assay employed a DNA polymerase-based approach utilizing an oligonucleotide template with 3 distinct regions: a 3′ primer binding region, a mid-template dUTP/thymidine triphosphate (TTP) detection region and a 5′ 6-[…] (FAM)-labeled probe binding region that incorporates a black hole quenching moiety. During the reaction, the probe and primer hybridize to the oligonucleotide template to form the template:primer:probe complex. When Taq polymerase binds to the primer in the TPP complex and dUTP is present, successful extension of the nascent strand occurs and the inherent 5′ to 3′ exonuclease activity of Taq polymerase cleaves and displaces the 6-FAM-labeled probe in a 5′ to 3′ direction, releasing the 6-FAM fluorophore from its proximity to the […]. This displacement effectively disrupts the Förster resonance energy transfer (FRET) and the resulting fluorescence detected upon excitation is directly proportional to the amount of the dUTP available in the assay for incorporation. […]
% relative inhibition vs. positive control [%],SMILES,further results
–,"CC(C)(NS(=O)(=O)CCCCCC1CCC(=O)NC1=O)c1ccc(F)c(OCC2CC2)c1 (single isomer, unassigned) [Example 81 isomer 1, N-(2-(3-(cyclopropylmethoxy)-4-fluorophenyl)propan-2-yl)-5-(2,6-dioxopiperidin-3-yl)pentane-1-sulfonamide]",% relative inhibition vs. positive control (listed as 81 isomer 1): 16%
22,"CC(C)(NS(=O)(=O)CC/C=C/CC1CCC(=O)NC1=O)c1cccc(OCC2CC2)c1 (stereo not shown) [Example 84, (E)-N-(2-(3-(cyclopropylmethoxy)phenyl)propan-2-yl)-5-(2,6-dioxopiperidin-3-yl)pent-3-ene-1-sulfonamide]",–
–,"CC[C@@H](NS(=O)(=O)CC/C=C/CC1CCC(=O)NC1=O)c1ccc(F)c(OCC2CC2)c1 (single isomer, unassigned) [Example 88 trans isomer 1]",% relative inhibition vs. positive control (listed as 88 trans isomer 1): 10%
65,"CC[C@@](O)(CNS(=O)(=O)C/C=C/CC1CCC(=O)NC1=O)c1ccc(F)c(OCC2CC2)c1 (stereo partly drawn) [Example 89, (E)-N—((S)-2-(3-(cyclopropylmethoxy)-4-fluorophenyl)-2-hydroxybutyl)-4-(2,6-dioxopiperidin-3-yl)but-2-ene-1-sulfonamide]",–
49,"CC(C)(NS(=O)(=O)CCCCCC1CCC(=O)NC1=O)c1ccc(F)c(OCC2CC2)c1 (stereo not shown) [Example 81, N-(2-(3-(cyclopropylmethoxy)-4-fluorophenyl)propan-2-yl)-5-(2,6-dioxopiperidin-3-yl)pentane-1-sulfonamide]",–
26,"CC(C)(NS(=O)(=O)C/C=C/CCC1CCC(=O)NC1=O)c1ccc(F)c(OCC2CC2)c1 (stereo not shown) [Example 87, (E)-N-(2-(3-(cyclopropylmethoxy)-4-fluorophenyl)propan-2-yl)-5-(2,6-dioxopiperidin-3-yl)pent-2-ene-1-sulfonamide]",–
26,"CC(C)(NS(=O)(=O)C/C=C/CC1CCC(=O)NC1=O)c1ccc(F)c(OCC2CC2)c1 (stereo not shown) [Example 82, (E)-N-(2-(3-(cyclopropylmethoxy)-4-fluorophenyl)propan-2-yl)-4-(2,6-dioxopiperidin-3-yl)but-2-ene-1-sulfonamide]",–
70,"CC(C)(NS(=O)(=O)CC/C=C/CC1CCC(=O)NC1=O)c1ccc(F)c(OCC2CC2)c1 (stereo not shown) [Example 79, (E)-N-(2-(3-(cyclopropylmethoxy)-4-fluorophenyl)propan-2-yl)-5-(2,6-dioxopiperidin-3-yl)pent-3-ene-1-sulfonamide]",–
–,"CC(C)(NS(=O)(=O)CC/C=C/CC1CCC(=O)NC1=O)c1ccc(F)c(OCC2CC2)c1 (single isomer, unassigned) [Example 79 trans isomer 2, (E)-N-(2-(3-(cyclopropylmethoxy)-4-fluorophenyl)propan-2-yl)-5-(2,6-dioxopiperidin-3-yl)pent-3-ene-1-sulfonamide]",% relative inhibition vs. positive control (listed as 79 trans isomer 2): 51%
–,"CC(C)(NS(=O)(=O)CCCCCC1CCC(=O)NC1=O)c1ccc(F)c(OCC2CC2)c1 (single isomer, unassigned) [Example 81 isomer 2, N-(2-(3-(cyclopropylmethoxy)-4-fluorophenyl)propan-2-yl)-5-(2,6-dioxopiperidin-3-yl)pentane-1-sulfonamide]",% relative inhibition vs. positive control (listed as 81 isomer 2): 41%
–,"CC(C)(NS(=O)(=O)CC/C=C/CC1CCC(=O)NC1=O)c1ccc(F)c(OCC2CC2)c1 (single isomer, unassigned) [Example 79 trans isomer 1, (E)-N-(2-(3-(cyclopropylmethoxy)-4-fluorophenyl)propan-2-yl)-5-(2,6-dioxopiperidin-3-yl)pent-3-ene-1-sulfonamide]",% relative inhibition vs. positive control (listed as 79 trans isomer 1): 22%
81,"CC(C)(O)COc1cc(C2(NS(=O)(=O)CC/C=C/CN3CCC(=O)NC3=O)CC2)ccc1F [Example 92, (E)-5-(2,4-dioxotetrahydropyrimidin-1(2H)-yl)-N-(1-(4-fluoro-3-(2-hydroxy-2-methylpropoxy)phenyl)cyclopropyl)pent-3-ene-1-sulfonamide]",–
45,"CC(C)(NS(=O)(=O)CCC/C=C/CC1CCC(=O)NC1=O)c1ccc(F)c(OCC2CC2)c1 (stereo not shown) [Example 83, (E)-N-(2-(3-(cyclopropylmethoxy)-4-fluorophenyl)propan-2-yl)-6-(2,6-dioxopiperidin-3-yl)hex-4-ene-1-sulfonamide]",–
80,"CC[C@@H](NS(=O)(=O)CC/C=C/CC1CCC(=O)NC1=O)c1ccc(F)c(OCC2CC2)c1 (stereo partly drawn) [Example 88, (E)-N—((R)-1-(3-(cyclopropylmethoxy)-4-fluorophenyl)propyl)-5-(2,6-dioxopiperidin-3-yl)pent-3-ene-1-sulfonamide]",–
–,"CC[C@@H](NS(=O)(=O)CC/C=C/CC1CCC(=O)NC1=O)c1ccc(F)c(OCC2CC2)c1 (single isomer, unassigned) [Example 88 trans isomer 2]",% relative inhibition vs. positive control (listed as 88 trans isomer 2): 167%
11,"CC(C)(NS(=O)(=O)CCCCCNC1CCC(=O)NC1=O)c1ccc(F)c(OCC2CC2)c1 (stereo not shown) [Example 85, N-(2-(3-(cyclopropylmethoxy)-4-fluorophenyl)propan-2-yl)-5-((2,6-dioxopiperidin-3-yl)amino)pentane-1-sulfonamide]",–
6,"CC[C@@](O)(CNS(=O)(=O)CCCNC1CCC(=O)NC1=O)c1ccc(F)c(OCC2CC2)c1 (stereo partly drawn) [Example 86, N—((S)-2-(3-(cyclopropylmethoxy)-4-fluorophenyl)-2-hydroxybutyl)-3-((2,6-dioxopiperidin-3-yl)amino)propane-1-sulfonamide]",–
10,"CC[C@@H](NS(=O)(=O)CCCCCC1CCC(=O)NC1=O)c1ccc(F)c(OCC2CC2)c1 (stereo partly drawn) [Example 91, N—((R)-1-(3-(cyclopropylmethoxy)-4-fluorophenyl)propyl)-5-(2,6-dioxopiperidin-3-yl)pentane-1-sulfonamide]",–
82,"CC[C@@](O)(CNS(=O)(=O)CCCCC1CCC(=O)NC1=O)c1ccc(F)c(OCC2CC2)c1 (stereo partly drawn) [Example 90, N—((S)-2-(3-(cyclopropylmethoxy)-4-fluorophenyl)-2-hydroxybutyl)-4-(2,6-dioxopiperidin-3-yl)butane-1-sulfonamide]",–
